Experimental findings from the NIST ThermoML archive (doi:10.1016/j.jct.2013.05.011) are described below.

The nature of data set [1]: activity coefficient (dimensionless); of the first substance listed, at infinite dilution; xn = mol fraction of the nth substance listed. The settings on record: 101 kPa, Liquid, Chromatography, x1 = 0.
Data set [2] in a line: refractive index (Na D-line) (dimensionless). The settings on record: 293.15 K; 101.33 kPa; Liquid; Standard Abbe refractometry.
The conditions of data set [3]: 288.15 K; 101.33 kPa; Liquid; Vibrating tube method.

Structures are written as SMILES. Numbers after ± are expanded uncertainties.

With `C#CCCCCCC` [1-octyne] + OCCOCCO, the activity coefficient in data set [1] (333.2 K) amounted to 29.9 ± 2; in data set [1] (348.2 K), 29.7 ± 2; in data set [1] (363.2 K), 27 ± 1.9.
On to `C1CCCCC1` [cyclohexane] + OCCOCCOCCO, for which the activity coefficient was determined as 21.1 ± 1.4 in data set [1] (333.2 K), 18.6 ± 1.3 in data set [1] (348.2 K) and 16.8 ± 1.1 in data set [1] (363.2 K).
On to `CC(C)O` [propan-2-ol] + OCCOCCOCCO, for which the activity coefficient in data set [1] (333.2 K) is 1.45 ± 0.1; in data set [1] (348.2 K) it was 1.4 ± 0.09; in data set [1] (363.2 K) it was 1.38 ± 0.09.
For `C#CCCCC` [1-hexyne] + OCCOCCOCCO the same measures were 7.01 ± 0.48, 7.03 ± 0.48 and 6.69 ± 0.46.
In the same order, the values of `C=CCCCC` [hex-1-ene] + OCCOCCOCCO are 24.6 ± 1.7, 22.7 ± 1.6 and 20.4 ± 1.4.
Take `CCCO` [propan-1-ol] + OCCOCCO: the figures for the activity coefficient in data set [1] (333.2 K), in data set [1] (348.2 K) and in data set [1] (363.2 K) were 1.8 ± 0.12, 1.77 ± 0.12 and 1.74 ± 0.12, respectively.
For `Cc1ccccc1` [toluene] + OCCOCCOCCO, the results for the activity coefficient in data set [1] (333.2 K), in data set [1] (348.2 K) and in data set [1] (363.2 K) were 5.88 ± 0.4, 5.73 ± 0.39 and 5.55 ± 0.38, respectively.
In the same order, the values of `C=CCCCCC` [1-heptene] + OCCOCCOCCO are 34.4 ± 2.4, 30.6 ± 2.1 and 27.5 ± 1.9.
In the same order, the values of `Cc1ccccc1` [toluene] + OCCOCCO are 11.2 ± 0.77, 10.9 ± 0.75 and 10.5 ± 0.72.
In the same order, the values of `CCCCCCC` [heptane] + OCCOCCO are 131 ± 9, 122 ± 8.4 and 95.4 ± 6.5.
`C1CCCC1` [cyclopentane] + OCCOCCO: the activity coefficient in data set [1] (333.2 K) was 30.9 ± 2.1; in data set [1] (348.2 K), 27.6 ± 1.9; in data set [1] (363.2 K) it was 25.9 ± 1.8.
In the case of `c1ccccc1` [benzene] + OCCOCCO, the values for the activity coefficient in data set [1] (333.2 K), in data set [1] (348.2 K) and in data set [1] (363.2 K) were 7.33 ± 0.5, 7.21 ± 0.49 and 7.05 ± 0.48, respectively.
For `C1CCCCCC1` [cycloheptane] + OCCOCCOCCO the same measures were 29.6 ± 2, 22.3 ± 1.5 and 19.8 ± 1.4.
A word on the refractive index: it is a measure of how strongly the sample bends light. A word on the mass density: it is mass per unit of volume. In the case of `OCCOCCOCCO` [triethylene glycol], the refractive index in data set [2] worked out at 1.4563 ± 0.0004. In addition, the mass density in data set [3] is recorded as 1127.37 ± 0.15 kg/m3.
Regarding `C1CCCCCC1` [cycloheptane] + OCCOCCO, the activity coefficient in data set [1] (333.2 K) turned out to be 52.4 ± 3.6; in data set [1] (348.2 K), 47.4 ± 3.2; in data set [1] (363.2 K) it was 42.1 ± 2.9.
For `C=CCCCC` [hex-1-ene] + OCCOCCO the same measures were 50.7 ± 3.5, 47.3 ± 3.2 and 38.9 ± 2.7.
For `CCCCCCCCC` [nonane] + OCCOCCOCCO the same measures were 137 ± 9.4, 98.9 ± 6.8 and 83.1 ± 5.7.
For `C#CCCC` [1-pentyne] + OCCOCCOCCO the same measures were 5.07 ± 0.63, 5.11 ± 0.64 and 5.01 ± 0.62.
As to `CCCCC` [pentane] + OCCOCCO, the activity coefficient in data set [1] (333.2 K) was 70.2 ± 8.7; in data set [1] (348.2 K) it was 53.8 ± 6.7; in data set [1] (363.2 K), 54.2 ± 6.7.
For `CCCCCCC` [heptane] + OCCOCCOCCO the same measures were 62.3 ± 4.3, 52.3 ± 3.6 and 43.7 ± 3.
For `CCCCCCCC` [octane] + OCCOCCOCCO the same measures were 103 ± 7.1, 74 ± 5.1 and 62.9 ± 4.3.
In the same order, the values of `CC(C)O` [propan-2-ol] + OCCOCCO are 1.79 ± 0.12, 1.77 ± 0.12 and 1.74 ± 0.12.
Take `C#CCCCCCC` [1-octyne] + OCCOCCOCCO: the results for the activity coefficient in data set [1] (333.2 K), in data set [1] (348.2 K) and in data set [1] (363.2 K) were 14.4 ± 0.98, 12.8 ± 0.87 and 12.2 ± 0.83, respectively.
Regarding `C#CCCCCC` [1-heptyne] + OCCOCCO, the activity coefficient turned out to be 20.3 ± 1.4 in data set [1] (333.2 K), 20.8 ± 1.4 in data set [1] (348.2 K) and 19.3 ± 1.3 in data set [1] (363.2 K).
For `CCCCCCCC` [octane] + OCCOCCO, the activity coefficient in data set [1] (333.2 K) stood at 188 ± 13; in data set [1] (348.2 K) it was 168 ± 12; in data set [1] (363.2 K), 146 ± 10.
For `C=CCCC` [1-pentene] + OCCOCCO the same measures were 35.3 ± 4.4, 32.9 ± 4.1 and 27.6 ± 3.4.
For `C1CCCCC1` [cyclohexane] + OCCOCCO the same measures were 42.7 ± 2.9, 39.2 ± 2.7 and 34.9 ± 2.4.
In the same order, the values of `CCCO` [propan-1-ol] + OCCOCCOCCO are 1.38 ± 0.09, 1.34 ± 0.09 and 1.31 ± 0.09.
For the compound `CO` [methanol] + OCCOCCO, the activity coefficient in data set [1] (333.2 K) came out at 0.988 ± 0.062; in data set [1] (348.2 K), 1.01 ± 0.06; in data set [1] (363.2 K), 1.02 ± 0.06.
`C=CCCC` [1-pentene] + OCCOCCOCCO: the results for the activity coefficient in data set [1] (333.2 K), in data set [1] (348.2 K) and in data set [1] (363.2 K) were 17.5 ± 2.2, 16.1 ± 2 and 14.8 ± 1.8, respectively.
For `CCc1ccccc1` [ethylbenzene] + OCCOCCOCCO the same measures were 8.63 ± 0.59, 8.21 ± 0.56 and 7.86 ± 0.54.
As to `C#CCCCC` [1-hexyne] + OCCOCCO, the activity coefficient was determined as 14.1 ± 0.96 in data set [1] (333.2 K), 14.6 ± 1 in data set [1] (348.2 K) and 13.8 ± 0.94 in data set [1] (363.2 K).
With `C=CCCCCCC` [oct-1-ene] + OCCOCCOCCO, the activity coefficient was found to be 55.9 ± 3.8 in data set [1] (333.2 K), 41.8 ± 2.9 in data set [1] (348.2 K) and 36.8 ± 2.5 in data set [1] (363.2 K).
As to `C1CCCC1` [cyclopentane] + OCCOCCOCCO, the activity coefficient is 15.2 ± 1 in data set [1] (333.2 K), 14 ± 0.95 in data set [1] (348.2 K) and 12.7 ± 0.87 in data set [1] (363.2 K).
In the same order, the values of `CCCCCCCCC` [nonane] + OCCOCCO are 264 ± 18, 230 ± 16 and 193 ± 13.
On to `C=CCCCCC` [1-heptene] + OCCOCCO, for which the activity coefficient in data set [1] (333.2 K) was found to be 72.3 ± 5; in data set [1] (348.2 K) it was 66.6 ± 4.6; in data set [1] (363.2 K), 60.5 ± 4.1.
Turning to `CCCCC` [pentane] + OCCOCCOCCO, the figures for the activity coefficient in data set [1] (333.2 K), in data set [1] (348.2 K) and in data set [1] (363.2 K) were 33.7 ± 4.2, 30.8 ± 3.8 and 23.2 ± 2.9, respectively.
For `C=CCCCCCC` [oct-1-ene] + OCCOCCO, the results for the activity coefficient in data set [1] (333.2 K), in data set [1] (348.2 K) and in data set [1] (363.2 K) were 101 ± 6.9, 93.5 ± 6.4 and 82.6 ± 5.7, respectively.
For `CCCCCC` [hexane] + OCCOCCOCCO the same measures were 45.8 ± 3.1, 40.3 ± 2.8 and 35.1 ± 2.4.
Take `C#CCCC` [1-pentyne] + OCCOCCO: the activity coefficient in data set [1] (333.2 K) worked out at 9.93 ± 1.2; in data set [1] (348.2 K) it was 10.5 ± 1.3; in data set [1] (363.2 K), 10.2 ± 1.3.
For `CCO` [ethanol] + OCCOCCOCCO the same measures were 1.18 ± 0.08, 1.15 ± 0.07 and 1.12 ± 0.07.
Take `OCCOCCO` [diethylene glycol]: the refractive index in data set [2] was 1.4471 ± 0.0004. Besides, the mass density in data set [3] is on record as 1120.05 ± 0.28 kg/m3.
Take `C1CCCCCCC1` [cyclooctane] + OCCOCCOCCO: the activity coefficient is 35.3 ± 2.4 in data set [1] (333.2 K), 27.2 ± 1.9 in data set [1] (348.2 K) and 23.9 ± 1.6 in data set [1] (363.2 K).
In the same order, the values of `CCCCCC` [hexane] + OCCOCCO are 95.7 ± 6.6, 84 ± 5.8 and 82.4 ± 5.6.
For `CCc1ccccc1` [ethylbenzene] + OCCOCCO the same measures were 16.8 ± 1.1, 16.1 ± 1.1 and 15.2 ± 1.
Regarding `CO` [methanol] + OCCOCCOCCO, the activity coefficient in data set [1] (333.2 K) amounted to 0.788 ± 0.051; in data set [1] (348.2 K) it was 0.787 ± 0.051.
Consider `CCO` [ethanol] + OCCOCCO, for which the activity coefficient in data set [1] (333.2 K) is 1.47 ± 0.1; in data set [1] (348.2 K), 1.46 ± 0.1; in data set [1] (363.2 K), 1.46 ± 0.1.
Regarding `C1CCCCCCC1` [cyclooctane] + OCCOCCO, the results for the activity coefficient in data set [1] (333.2 K), in data set [1] (348.2 K) and in data set [1] (363.2 K) were 70.7 ± 4.8, 61.3 ± 4.2 and 52.2 ± 3.6, respectively.
For `C#CCCCCC` [1-heptyne] + OCCOCCOCCO the same measures were 10.2 ± 0.7, 9.04 ± 0.62 and 8.99 ± 0.61.
As to `c1ccccc1` [benzene] + OCCOCCOCCO, the activity coefficient in data set [1] (333.2 K) was 3.91 ± 0.27; in data set [1] (348.2 K), 3.86 ± 0.26; in data set [1] (363.2 K), 3.36 ± 0.23.
